Values after ≈ are worked out from the molar mass of the structure shown. Where two headings read alike, the source gives them in different places.
Key:
[1] = tested on: E. coli ATCC 25922 (AECO001); experiment: MIC, CLSI broth microdilution; format: cell-based; conditions: for MIC: Escherichia coli
Summary of the method: (§1)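 Test compounds were diluted two-fold at 2× strength in Mueller Hinton Broth, then combined 1:1 with saline-suspended bacteria from an overnight agar colony to reach 5×10^5 CFU/mL. Incubation followed at 35° C. for 20 hours in ambient air, per CLSI reference methods.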

[2] = tested on: P. aeruginosa ATCC 27853 (APAE001); experiment: MIC, CLSI broth microdilution; format: cell-based; conditions: Pseudomonas aeruginosa, ATCC27853; Table 2; read-out: MIC P. aeruginosa
Summary of the method: as §1

Pathogens (169 in total) = experiment: Susceptibility testing, all urinary tract infection isolates; format: cell-based; conditions: all isolates
Description: (§2) Minimum inhibitory concentrations (MIC) were determined by reference Clinical and Laboratory Standards Institute (CLSI) broth microdilution methods per M7-A7 [2006]. Quality control ranges utilizing E. coli ATCC 25922, P. aeruginosa ATCC 27853 and S. aureus ATCC 29213, and interpretive criteria for comparator agents were as published in CLSI M100-S17 [2007]. Briefly, serial two-fold dilutions of the test compounds were prepared at 2× concentration in Mueller Hinton Broth. The compound dilutions were mixed in 96-well assay plates in a 1:1 ratio with bacterial inoculum. The inoculum was prepared by suspension of a colony from an agar plate that was prepared the previous day. Bacteria were suspended in sterile saline and added to each assay plate to obtain a final concentration of 5×10^5 CFU/mL. The plates were incubated at 35° C. for 20 hours in ambient air.
(§3) In order to determine the activity of representative antibacterial aminoglycoside compounds against bacterial species that commonly cause complicated urinary tract infections worldwide, isolates were collected from 47 medical centers in the U.S. and Europe (10 countries) from urine or blood culture with the source of bacteremia documented as a urinary tract infection. Strains were susceptibility tested against Example 1, gentamicin, amikacin and 10 comparators by CLSI broth microdilution. These MIC assays were conducted following the same protocol as set forth in Example 110. Pathogens (169 in total) included E. coli, Klebsiella spp., Enterobacter spp., Citrobacter spp., P. mirabilis, M. Morganii, P. aeruginosa, S. aureus and S. saprophyticus.

[3] = tested on: E. coli, Klebsiella spp., Enterobacter spp. and Citrobacter spp.; experiment: MIC, urinary tract infection isolates; format: cell-based; conditions: Escherichia coli, range among E. coli
Description: as §2, §3

P. aeruginosa (19) = experiment: MIC, urinary tract infection isolates; format: cell-based; conditions: Pseudomonas aeruginosa; P. aeruginosa isolates
Description: as §2, §3

[4] = tested on: P. mirabilis and M. morganii; experiment: MIC, urinary tract infection isolates; format: cell-based
Description: as §2, §3

S. aureus (23) = experiment: MIC, urinary tract infection isolates; format: cell-based; conditions: Staphylococcus aureus; S. aureus isolates, including 43.5% oxacillin-resistant strains
Description: as §2, §3

S. saprophyticus (19) = experiment: MIC, urinary tract infection isolates; format: cell-based; conditions: Staphylococcus saprophyticus; S. saprophyticus isolates
Description: as §2, §3

E. coli AECO 1003, MDR = experiment: Murine neutropenic thigh model; format: in vivo
Description: Activity is presented as the log10 difference in CFU/thigh after 24 hours of antibiotic treatment compared to CFU/thigh just prior to antibiotic treatment (2 hours post-infection). Total dose per 24 hours is shown; dosing was q12 hours. 6 mice per group. Inoculum=1.5×10^3 CFU.
(§4) The in vivo activity of Example 1 in the mouse neutropenic thigh model (Andes and Craig. Antimicrob Agents Chemother. 2002, 46:1665-1670) was determined against seven bacterial strains including susceptible Escherichia coli and Klebsiella pneumoniae; multi-drug resistant (MDR) clinical isolates of E. coli and K. pneumoniae that display resistance to multiple antibiotics (including AGs); MRSA; and two K. pneumoniae carbapenemases (KPC)-expressing strains (see Table 5). For this efficacy model, groups of six CD-1 mice were rendered neutropenic by two intraperitoneal injections of cyclophosphamide. The first injection was 150 mg/kg three days prior to infection (day −4), and the second injection was 100 mg/kg one day prior to infection (day −1). On study day 0, animals were inoculated intramuscularly (0.1 ml) with a known number of colony forming units (CFU) of the specified bacterial strain (ATCC 25922, AECO 1003, ATCC 43816, AKPN 1073, AKPN 1109, ATCC 33591 or ASMA 1030), tailored to the virulence of each strain in the model to maximize bacterial load while avoiding mortality in the untreated control arms. Antibiotics were administered via subcutaneous injection at 2 and 14 hours after bacterial challenge. At 26 hours, infected thigh tissue was harvested, homogenized, and plated to count CFU. Untreated control animals were harvested at 2 hours post-infection to assess the initial bacterial load and at 26 hours post-infection to measure growth in the absence of antibiotic treatment.

[5] = tested on: K. pneumoniae AKPN 1073, MDR; experiment: Murine neutropenic thigh model; format: in vivo
Description: FIG. 2 is a line graph showing dose-responses of Example 1, gentamicin, and imipenem (positive control) in a murine neutropenic thigh model against an AG-resistant clinical isolate of K. pneumoniae (AKPN 1073). Activity is presented as the log10 difference in CFU/thigh after 24 hours of antibiotic treatment compared to CFU/thigh just prior to antibiotic treatment (2 hours post-infection). Total dose per 24 hours is shown; dosing was q12 hours. 6 mice per group. Inoculum=1.3×10^4 CFU.
as §4

[6] = tested on: S. aureus ATCC 33591, MRSA; experiment: Murine neutropenic thigh model; format: in vivo
Description: FIG. 4 is a line graph showing dose-responses of Example 1, arbekacin, gentamicin, vancomycin, and daptomycin in a murine neutropenic thigh model against an MRSA (ATCC 33591). Activity is presented as the log10 difference in CFU/thigh after 24 hours of antibiotic treatment compared to CFU/thigh just prior to antibiotic treatment (2 hours post-infection). Total dose per 24 hours is shown; dosing was q12 hours. 6 mice per group, Inoculum=1.2×10^3 CFU.
as §4

[7] = tested on: E. coli ATCC 25922, Susceptible; experiment: Murine neutropenic thigh model; format: in vivo
Description: as §4

[8] = tested on: K. pneumoniae ATCC 43816, Susceptible; experiment: Murine neutropenic thigh model; format: in vivo
Description: as §4

[9] = tested on: S. marcescens ASMA 1030, KPC; experiment: Murine neutropenic thigh model; format: in vivo
Description: as §4

seven bacterial strains = experiment: Murine neutropenic thigh model, all strains; format: in vivo
Description: as §4, with “Untreated control animals were harvested at 2 hours post-infection to assess the initial bacterial load and at 26 hours post-infection to measure growth in the absence of antibiotic treatment.” left out

Work on CN[C@@H]1[C@@H](O)[C@@H](O[C@@H]2[C@@H](O)[C@H](O[C@H]3OC(CNCCO)=CC[C@H]3N)[C@@H](N)C[C@H]2NC(=O)[C@@H](O)CCN)OC[C@]1(C)O [Example 1, 6′-(2-Hydroxy-ethyl)-1-(4-amino-2(S)-hydroxy-butyryl)-sisomicin] yielded an MIC ([1]; ATCC25922, Table 2, read-out: MIC E. coli) of under 1 µg/mL, an MIC ([1]; ATCC25922, Table 5, E. coli Susceptible ATCC 25922, read-out: MIC) of 1 µg/mL (≈ 1.69 µM) and an MIC ([1]; Table 1, AECO001 is ATCC25922, read-out: MIC AECO001) of under 1 µg/mL. The MIC AECO001 ([1]; Table 3, ATCC25922) was 0.5 µg/mL (≈ 0.844 µM), the MIC [2] was 1 to 16 µg/mL (≈ 1.69 to 27 µM) and the “% of strains inhibited” value (Pathogens (169 in total); at ≦4 μg/ml) was 90.5%. The “% of strains inhibited” value (Pathogens (169 in total); at ≦16 μg/ml) was 98.8%, the MIC90 [3] was 0.5 to 2 µg/mL (≈ 0.844 to 3.37 µM) and the MIC90 (P. aeruginosa (19)) was 16 µg/mL (≈ 27 µM). For the same compound, the MIC90 [4] was 4 to 8 µg/mL (≈ 6.75 to 13.5 µM), the MIC90 (S. aureus (23)) was 2 µg/mL (≈ 3.37 µM) and the MIC50 (S. saprophyticus (19)) was at most 0.25 µg/mL. The MIC90 (S. saprophyticus (19)) was 0.5 µg/mL (≈ 0.844 µM), the ED50/MIC (E. coli AECO 1003, MDR; E. coli AECO 1003) was 14.6 and the ED50 (E. coli AECO 1003, MDR; Escherichia coli, sc, neutropenic CD-1 mice, subcutaneous at 2 and 14 hours, E. coli AECO 1003) was 14.6 mg/kg. For the same compound, the “bacterial titer after 24 hours of treatment versus initial bacterial load at 2 hours post-inoculation” value (E. coli AECO 1003, MDR; highest dosage, challenge 1.5×10^3 CFU AECO 1003, FIG. 1) was “reduced to below the initial bacterial load”, the ED50/MIC ([5]; K. pneumoniae AKPN 1073) was 6.6 and the ED50 ([5]; Klebsiella pneumoniae, sc, neutropenic CD-1 mice, subcutaneous at 2 and 14 hours, K. pneumoniae AKPN 1073) was 3.3 mg/kg. The “bacterial load after 24 hours of treatment versus initial bacterial load at 2 hours post-inoculation” value ([5]; two highest dosages, challenge 1.3×10^4 CFU AKPN 1073, FIG. 2) was “reduced to below the level of the initial bacterial load”, the ED50/MIC ([6]; S. aureus ATCC 33591) was 4.8-9.7 and the ED50 ([6]; Staphylococcus aureus, sc, neutropenic CD-1 mice, subcutaneous at 2 and 14 hours, S. aureus ATCC 33591) was 38.7 mg/kg. The “bacterial load after 24 hours of treatment versus initial bacterial load at 2 hours post-inoculation” value ([6]; two highest dosages, challenge 1.2×10^3 CFU ATCC 33591, FIG. 4) was “reduced to below the initial bacterial load”, the ED50/MIC [7] was 8.4 and the ED50 ([7]; Escherichia coli, ATCC25922, sc, neutropenic CD-1 mice, subcutaneous at 2 and 14 hours) was 8.4 mg/kg. For the same compound, the ED50/MIC [8] was 7.4, the ED50 ([8]; Klebsiella pneumoniae, ATCC43816, sc, neutropenic CD-1 mice, subcutaneous at 2 and 14 hours) was 3.7 mg/kg and the ED50/MIC [9] was 16.5. For the same compound, the ED50 ([9]; Serratia marcescens, sc, neutropenic CD-1 mice, subcutaneous at 2 and 14 hours) was 16.5 mg/kg, the “bacterial titers versus initial bacterial load (static level)” value (seven bacterial strains; all 7 strains) was “reducing bacterial titers back to or below the initial bacterial load” and the “in vivo efficacy in words” value (seven bacterial strains; gentamicin resistant strains) was “efficacious”.

Source: patent publication US20120214760A1, “TREATMENT OF URINARY TRACT INFECTIONS WITH ANTIBACTERIAL AMINOGLYCOSIDE COMPOUNDS” (Achaogen, Inc., priority 2009, published 2012)
